Results published in US8921546B2, “Imidazolothiazole compounds for the treatment of disease” (Ambit Biosciences Corporation, priority 2006, dated 2014).
Counter-ions that a name gives are not always drawn. Like-named read-outs stand apart in the source and are kept apart here.

Assays:
FLT3 = target: T1, FLT3 (Homo sapiens, UniProt P36888); experiment: Binding constant (Kd) measurement, phage-displayed kinase competition binding assay, FLT3
T1 construct: made in house
T1 sequence (P36888 27-993): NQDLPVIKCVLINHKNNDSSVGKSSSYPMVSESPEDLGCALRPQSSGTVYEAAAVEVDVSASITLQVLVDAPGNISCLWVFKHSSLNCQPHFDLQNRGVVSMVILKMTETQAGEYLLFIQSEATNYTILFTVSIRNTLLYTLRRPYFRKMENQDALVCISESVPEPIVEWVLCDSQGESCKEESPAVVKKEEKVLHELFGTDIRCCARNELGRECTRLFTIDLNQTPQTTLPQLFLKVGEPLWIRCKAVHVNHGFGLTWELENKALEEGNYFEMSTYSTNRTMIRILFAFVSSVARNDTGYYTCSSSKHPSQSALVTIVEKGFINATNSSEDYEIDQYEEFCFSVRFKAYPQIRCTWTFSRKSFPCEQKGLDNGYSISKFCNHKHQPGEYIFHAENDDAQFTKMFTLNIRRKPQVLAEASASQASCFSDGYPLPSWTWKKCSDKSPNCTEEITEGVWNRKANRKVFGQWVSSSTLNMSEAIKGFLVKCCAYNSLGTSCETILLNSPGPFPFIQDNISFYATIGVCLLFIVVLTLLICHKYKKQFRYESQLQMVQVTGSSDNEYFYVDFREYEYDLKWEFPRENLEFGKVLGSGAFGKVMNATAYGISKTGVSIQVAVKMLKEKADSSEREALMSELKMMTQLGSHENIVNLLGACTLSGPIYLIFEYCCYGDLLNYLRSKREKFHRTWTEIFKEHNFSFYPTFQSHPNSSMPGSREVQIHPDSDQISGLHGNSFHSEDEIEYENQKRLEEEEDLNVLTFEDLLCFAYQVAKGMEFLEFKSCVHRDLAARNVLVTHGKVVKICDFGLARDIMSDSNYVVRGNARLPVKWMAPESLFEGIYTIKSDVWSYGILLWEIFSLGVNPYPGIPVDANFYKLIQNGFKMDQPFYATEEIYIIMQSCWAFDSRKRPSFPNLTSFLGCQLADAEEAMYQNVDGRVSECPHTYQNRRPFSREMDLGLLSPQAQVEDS
Experimental: (§1) Binding Constant (Kd) Measurements for Small-Molecule-Kinase Interactions
(§2) By testing across a large class of protein kinases, specificity of the kinase inhibitors provided herein is also determined. The components of the assays include various human kinases expressed as fusions to T7 bacteriophage particles and immobilized ligands that bind to the ATP site of the kinases. […] If the test compound binds the kinase, it competes with the immobilized ligand and prevents binding to the solid support. […] The results are read out by quantitating the amount of fusion protein bound to the solid support, which is accomplished by either traditional phage plaque assays or by quantitative PCR (qPCR) using the phage genome as a template.

MV4-11 cells = experiment: Cellular proliferation assay (MTS), MV4-11; type: cell-based; conditions: Homo sapiens; MV4-11 cells, 72 hour incubation, MTS; read-out: Cellular Assay MV-proliferation IC50
From the text: Cellular Proliferation Assay
Cancer cell viability and proliferation can be evaluated using a tetrazolium salt reduction cell-based assay. In viable cells, this colorimetric assay can measure mitochondrial reduction of a tetrazolium component (MTS) into an […] formazan product.
This cell line was used to determine the ability of the compounds provided herein to inhibit Flt3 in intact cells. The RS4-11 cell line, which expresses the wild-type (WT) receptor, is also used as a control to verify the test compound's ability to inhibit the FLT3 receptor containing the ITD mutation.
MV4-11 cells were plated at 10,000 cells per well in DMEM medium with 0.5% serum. RS4-11 cells were plated at 20,000 cells per well in RPMI with 0.5% serum. […] An aliquot from each well of the compound plate was transferred to the plated cells and then incubated @ 37° C. in 5% CO2 (for 3 days for the MV4-11 cells, 2 days for the RS4-11 cells).
MTS tetrazolium compound (Owen's reagent) was thawed in a H2O bath. 20 μl of MTS tetrazolium was added to each well of optical plate and the cells were incubated @ 37° C. in 5% CO2 for 2 hours.

KIT = target: T2, KIT (Homo sapiens, UniProt P10721); experiment: Binding constant (Kd) measurement, phage-displayed kinase competition binding assay, KIT
T2 construct: made in house
Experimental: as §1, §2

CSF1R = target: T3, CSF1R (Homo sapiens, UniProt P07333); experiment: Binding constant (Kd) measurement, phage-displayed kinase competition binding assay, CSF1R
T3 construct: made in house
Experimental: as §1, §2

[1] = read-out: Binding Assay FLT3 Kd

T2 sequence (P10721 26-976): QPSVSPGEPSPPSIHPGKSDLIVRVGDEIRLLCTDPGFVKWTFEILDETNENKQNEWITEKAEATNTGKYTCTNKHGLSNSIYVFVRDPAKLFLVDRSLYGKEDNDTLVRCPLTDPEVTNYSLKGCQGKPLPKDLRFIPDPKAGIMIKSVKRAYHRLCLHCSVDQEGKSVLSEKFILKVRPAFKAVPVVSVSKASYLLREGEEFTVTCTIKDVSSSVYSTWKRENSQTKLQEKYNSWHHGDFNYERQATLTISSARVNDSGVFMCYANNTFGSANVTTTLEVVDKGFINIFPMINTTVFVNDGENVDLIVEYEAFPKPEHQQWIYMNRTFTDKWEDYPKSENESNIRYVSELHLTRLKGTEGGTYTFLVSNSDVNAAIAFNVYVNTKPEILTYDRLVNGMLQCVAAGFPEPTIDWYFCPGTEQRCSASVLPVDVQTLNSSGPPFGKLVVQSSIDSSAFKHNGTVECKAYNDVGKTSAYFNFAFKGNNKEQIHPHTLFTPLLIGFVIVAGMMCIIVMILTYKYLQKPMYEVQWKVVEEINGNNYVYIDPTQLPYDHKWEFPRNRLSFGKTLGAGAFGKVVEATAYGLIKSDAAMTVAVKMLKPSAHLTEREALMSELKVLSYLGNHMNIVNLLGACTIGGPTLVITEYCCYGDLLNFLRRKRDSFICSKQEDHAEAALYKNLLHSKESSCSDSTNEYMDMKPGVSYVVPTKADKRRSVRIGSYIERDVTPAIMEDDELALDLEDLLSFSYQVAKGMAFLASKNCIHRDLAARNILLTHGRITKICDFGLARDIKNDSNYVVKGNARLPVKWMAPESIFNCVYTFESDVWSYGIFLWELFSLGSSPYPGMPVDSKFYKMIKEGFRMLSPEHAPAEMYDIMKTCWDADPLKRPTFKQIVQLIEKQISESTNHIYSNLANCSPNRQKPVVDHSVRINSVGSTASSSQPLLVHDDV
T3 sequence (P07333 20-972): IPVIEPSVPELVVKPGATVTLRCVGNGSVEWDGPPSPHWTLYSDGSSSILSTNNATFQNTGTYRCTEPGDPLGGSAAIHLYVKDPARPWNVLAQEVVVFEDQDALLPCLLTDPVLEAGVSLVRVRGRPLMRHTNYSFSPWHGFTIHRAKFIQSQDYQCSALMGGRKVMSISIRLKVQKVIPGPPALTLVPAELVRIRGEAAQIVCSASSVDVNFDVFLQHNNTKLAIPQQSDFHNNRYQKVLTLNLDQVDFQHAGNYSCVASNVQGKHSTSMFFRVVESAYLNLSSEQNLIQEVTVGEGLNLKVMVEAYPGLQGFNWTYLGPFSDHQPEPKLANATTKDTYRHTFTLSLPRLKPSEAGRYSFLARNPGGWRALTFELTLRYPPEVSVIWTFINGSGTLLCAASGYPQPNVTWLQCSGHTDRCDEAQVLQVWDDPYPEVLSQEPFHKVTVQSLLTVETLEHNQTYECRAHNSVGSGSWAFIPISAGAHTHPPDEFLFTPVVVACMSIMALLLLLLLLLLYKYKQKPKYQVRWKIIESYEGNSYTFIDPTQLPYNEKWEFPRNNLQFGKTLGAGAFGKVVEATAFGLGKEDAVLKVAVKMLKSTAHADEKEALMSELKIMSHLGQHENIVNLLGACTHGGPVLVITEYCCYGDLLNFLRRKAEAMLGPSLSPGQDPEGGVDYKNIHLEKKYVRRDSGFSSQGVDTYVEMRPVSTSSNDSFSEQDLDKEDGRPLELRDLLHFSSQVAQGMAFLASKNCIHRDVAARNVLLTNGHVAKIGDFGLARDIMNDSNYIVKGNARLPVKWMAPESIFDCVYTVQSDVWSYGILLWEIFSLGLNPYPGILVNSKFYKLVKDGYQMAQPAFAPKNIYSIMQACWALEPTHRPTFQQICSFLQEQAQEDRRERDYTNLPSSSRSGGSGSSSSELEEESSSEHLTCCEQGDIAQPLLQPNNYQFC

SMILES	Kd (FLT3) [nM]	IC50 (MV4-11 cells) [nM]	Kd (KIT) [nM]	Kd (CSF1R) [nM]	Kd (FLT3; [1]) [nM]
CC(C)[C@@H](N)C(=O)Oc1ccc2c(c1)sc1nc(-c3ccc(NC(=O)Nc4cc(C(C)(C)C)on4)cc3)cn12 [Compound B5, (2R)-2-amino-3-methyl-butyric acid 2-{4-[3-(5-tert-butyl-isoxazol-3-yl)-ureido]-phenyl}-benzo[d]imidazo[2,1-b]thiazol-7-yl ester]	< 10	< 10	10 to 100	10 to 100	
CC(C)(C)c1cc(NC(=O)Nc2ccc(-c3cn4c(n3)sc3cc(OCCCN5CCOCC5)ccc34)cc2)no1 [Compound B7, 1-(5-tert-butyl-isoxazol-3-yl)-3-{4-[7-(3-morpholin-4-yl-propoxy)-benzo[d]imidazo[2,1-b]thiazol-2-yl]-phenyl}-urea hydrochloride]		< 10	10 to 100	10 to 100	< 10
CC(C)(C)c1cc(NC(=O)Nc2ccc(-c3cn4c(n3)sc3cc(OCCCN5CCSCC5)ccc34)cc2)no1 [Compound B8, 1-(5-tert-Butyl-isoxazol-3-yl)-3-{4-[7-(3-thiomorpholin-4-yl-propoxy)-benzo[d]imidazo[2,1-b]thiazol-2-yl]-phenyl}-urea]	< 10	10 to 100	10 to 100	10 to 100	
CC(C)(C)c1cc(NC(=O)Nc2ccc(-c3cn4c(n3)sc3cc(OCCCN5CCN(S(C)(=O)=O)CC5)ccc34)cc2)no1 [Compound B10, 1-(5-tert-butyl-isoxazol-3-yl)-3-(4-{7-[3-(4-methanesulfonyl-piperazin-1-yl)-propoxy]-benzo[d]imidazo[2,1-b]thiazol-2-yl}-phenyl)-urea]		< 10	10 to 100	10 to 100	< 10
CC(C)(C)c1cc(NC(=O)Nc2ccc(-c3cn4c(n3)sc3cccc(OCCN5CCOCC5)c34)cc2)no1 [Compound B11, N-(5-tert-butyl-isoxazol-3-yl)-N′-{4-[5-(2-morpholin-4-yl-ethoxy)imidazo[2,1-b][1,3]benzothiazol-2-yl]phenyl}urea hydrochloride]		< 10	10 to 100	100 to 1000	< 10
CC(C)(C)c1cc(NC(=O)Nc2ccc(-c3cn4c(n3)sc3ccc(OCCN5CCOCC5)cc34)cc2)no1 [Compound B12, N-(5-tert-butyl-isoxazol-3-yl)-N′-{4-[6-(2-morpholin-4-yl-ethoxy)imidazo[2,1-b][1,3]benzothiazol-2-yl]phenyl}urea hydrochloride]		< 10	10 to 100	100 to 1000	< 10
CC(C)(C)c1cc(NC(=O)Nc2cccc(-c3cn4c(n3)sc3cc(OCCN5CCOCC5)ccc34)c2)no1 [Compound B13, N-(5-tert-butyl-isoxazol-3-yl)-N′-{3-[7-(2-morpholin-4-yl-ethoxy)imidazo[2,1-b][1,3]benzothiazol-2-yl]phenyl}urea]		> 100	> 1000	> 1000	100 to 1000
CCOC(=O)c1ccc2c(c1)sc1nc(-c3cccc(NC(=O)Nc4cc(C(C)(C)C)on4)c3)cn12 [Compound B14, 2-{3-[3-(5-tert-Butyl-isoxazol-3-yl)-ureido]-phenyl}-imidazo[2,1-b][1,3]benzothiazole-7-carboxylic acid ethyl ester]		> 100	> 1000	> 1000	> 1000
CCOC(=O)CCc1ccc2c(c1)sc1nc(-c3ccc(NC(=O)Nc4cc(C(C)(C)C)on4)cc3)cn12 [Compound C3, Ethyl 3-{2-[4-({[(5-tert-Butylisoxazol-3-yl)amino]carbonyl}amino)phenyl]imidazo[2,1-b][1,3]benzothiazol-7-yl}propanoate]	< 10	< 10	10 to 100	> 1000	
CC(C)(C)c1cc(NC(=O)Nc2ccc(-c3cn4c(n3)sc3cc(CCC(=O)O)ccc34)cc2)no1 [Compound C4, 3-{2-[4-({[(5-tert-butylisoxazol-3-yl)amino]carbonyl}amino)phenyl]imidazo[2,1-b][1,3]benzothiazol-7-yl}propanoic acid]		< 10	< 10	10 to 100	< 10
CCN1CCN(C(=O)CCc2ccc3c(c2)sc2nc(-c4ccc(NC(=O)Nc5cc(C(C)(C)C)on5)cc4)cn23)CC1 [Compound C5, N-(5-tert-Butyl-isoxazol-3-yl)-N′-(4-{7-[3-(4-ethyl-piperazin-1-yl)-3-oxo-propyl]imidazo[2,1-b][1,3]benzothiazol-2-yl}phenyl)urea]		< 10	< 10	10 to 100	< 10
CC(C)(C)c1cc(NC(=O)Nc2ccc(-c3cn4c(n3)sc3cc(CCC(=O)N5CCOCC5)ccc34)cc2)no1 [Compound C7, N-(5-tert-butyl-isoxazol-3-yl)-N′-{4-[7-(3-morpholino-4-yl-3-oxo-propyl)imidazo[2,1-b][1,3]benzothiazol-2-yl]phenyl}urea]		< 10	< 10	10 to 100	< 10
CCN(CC)C(=O)CCc1ccc2c(c1)sc1nc(-c3ccc(NC(=O)Nc4cc(C(C)(C)C)on4)cc3)cn12 [Compound C8, 3-(2-{4-[3-(5-tert-butyl-isoxazol-3-yl)-ureido]-phenyl}-benzo[d]imidazo[2,1-b]thiazol-7-yl)-N,N-diethyl-propionamide]	< 10	< 10	< 10	10 to 100	
CC(C)(C)c1cc(NC(=O)Nc2ccc(-c3cn4c(n3)sc3cc(CCC(=O)NCCN5CCOCC5)ccc34)cc2)no1 [Compound C9, 3-(2-{4-[3-(5-tert-butyl-isoxazol-3-yl)-ureido]-phenyl}-benzo[d]imidazo[2,1-b]thiazol-7-yl)-N-(2-morpholin-4-yl-ethyl)-propionamide hydrochloride]		< 10	< 10	< 10	< 10
CC(C)(C)c1cc(NC(=O)Nc2ccc(-c3cn4c(n3)sc3cc(CCC(=O)NCCN5CCCCC5)ccc34)cc2)no1 [Compound C10, 3-(2-{4-[3-(5-tert-butyl-isoxazol-3-yl)-ureido]-phenyl}-benzo[d]imidazo[2,1-b]thiazol-7-yl)-N-(2-piperidin-1-yl-ethyl)-propionamide hydrochloride]		< 10	< 10	10 to 100	< 10
CC(C)(C)c1cc(NC(=O)Nc2ccc(-c3cn4c(n3)sc3cc(CCC(=O)NCCN5CCCC5)ccc34)cc2)no1 [Compound C11, 3-(2-{4-[3-(5-tert-butyl-isoxazol-3-yl)-ureido]-phenyl}-benzo[d]imidazo[2,1-b]thiazol-7-yl)-N-(2-pyrrolidin-1-yl-ethyl)-propionamide hydrochloride]	< 10	< 10	< 10	< 10	
CC(C)(C)c1cc(NC(=O)Nc2ccc(-c3cn4c(n3)sc3cc(C(=O)NCCN5CCCCC5)ccc34)cc2)no1 [Compound C20, 2-{4-[3-(5-tert-butyl-isoxazol-3-yl)-ureido]-phenyl}-imidazo[2,1-b][1,3]benzothiazole-7-carboxylic Acid (2-Piperidin-1-yl-ethyl)-amide hydrochloride]		< 10	< 10	10 to 100	
O=C(Nc1ccc(-c2cn3c(n2)sc2cc(OCCN4CCOCC4)ccc23)cc1)Nc1ccc2c(c1)OCO2 [Compound F3]			< 10	> 1000	< 10
